The text below walks through data of ChEMBL document CHEMBL3272028, “Some substituted naphthazarins as potential anticancer agents” (1976).

Activity calls are given as the source filed them. The rule behind the calls is not given here.

In one experiment the test system is L1210. The experiment is described as follows: Antitumor activity against mouse L1210 cells allografted in mouse. The class given is functional, cell-based.
Experiment [1] in a line: Growth inhibition of human 9KB cells at 1.8 ug/ml relative to control. The experiment is classed as functional. The following applies: read-out: GI.
Experiment [2] relates to P388. The experiment can be described thus: Antitumor activity against mouse P388 cells allografted in mouse. The class given is functional, cell-based.
In experiment [3] the test system is P388. The experiment can be described thus: Antitumor activity against mouse P388 cells allografted in mouse at 400 mg/kg relative to control. The experiment is classed as functional.
For experiment [4], the system named is P388. The experiment can be described thus: Antitumor activity against mouse P388 cells allografted in mouse at 50 mg/kg relative to control. The experiment is classed as functional.

Regarding `CC(=O)Oc1ccc(OC(C)=O)c2c1C(=O)C=CC2=O`, the result in the experiment with L1210 and in the experiment with P388 [2] was inactive. The inhibition of growth at 1.8 µg/mL in experiment [1] worked out at 50%.

Compound `CC(=O)Oc1ccc(OC(C)=O)c2c1CC(C)=C(C)C2` gave a T/C in the experiment with P388 [3] of 126. In addition, the outcome in the experiment with L1210 was inactive.

`CC1=C(C)C(=O)c2c(OC(=O)c3ccccc3)ccc(OC(=O)c3ccccc3)c2C1=O` registered a T/C in the experiment with P388 [4] of 128. In the experiment with L1210, the outcome was inactive.
